“Also recorded” adds a separate entry of the source. Like-named read-outs stand apart in the source and are kept apart here.
Experiments:
[1] = test system: ventricular tachyarrhythmias following LAD coronary artery ligation; experiment: Model 1: two-stage LAD coronary artery ligation, Holter EKG monitoring 2-24 hr (ventricular triplets, sustained VT/VF, death); format: in vivo, dog; details: for fastest ventricular triplet rate observed per hour after LAD ligation (FIG. 18, FIG. 32): 4 to 24 hr after LAD ligation; for mortality (dogs died of group): 24 hr after LAD ligation, etanercept 2 mg/kg at -24 and -1 hr, bortezomib 0.0875 mg/kg at -1 and +6 hr, anakinra 10 mg/kg at -1 and +12 hr, control 4 of 10, preliminary
Procedure: The two-stage ligation procedure results in a very low incidence of ventricular fibrillation (<5-10%) during the initial 6 hours following coronary artery occlusion (Harris et al., 1951). Almost all ventricular fibrillation occurs during the initial 30 minutes with a high proportion of successful defibrillation. Ambulatory EKG monitoring is performed over the 2-24 hr period following coronary artery ligation. During the 6-24 hr period, a 25-40% incidence of rapid monomorphic ventricular tachycardia (385±15/min) leading to ventricular fibrillation is observed at 13.3±0.8 hours post-LAD ligation (FIG. 1), with a mean duration of monomorphic ventricular tachycardia preceding ventricular fibrillation of 66±7 sec. When provocative ventricular pacing is performed at 24 hours, however, the reentrant substrate supporting sustained ventricular tachycardia is present in more than 80% of the surviving dogs with no difference in rate between spontaneous and pacing-induced sustained monomorphic ventricular tachycardias (FIG. 3).
In the 24-hr Infarct (Model 1) Studies, each control and etanercept pretreated animal was monitored for ventricular arrhythmias using a Holter 2-lead recording for the duration of time following LAD ligation. […] In the saline control group, 4 animals died at 11-24 hours post ligation. […]
Model 1: Electrophysiologic correlates of myocardial infarction over a 24-hr period. Eighteen 15-22 kg male mongrel dogs were anesthetized with IV sodium pentobarbital (30 mg/kg). A cuffed endotracheal tube was inserted and the animals were ventilated with room air using a volume-cycled respirator. […] The dogs were extubated and allowed to awaken in a temperature-controlled, humidified small animal post-operative recovery unit. They were given nalbuphine 0.2 mg/kg for post-operative analgesia. During the 2-24 hr period following LAD ligation, Holter monitoring was performed and the two-lead EKG was recorded on magnetic tape. Dogs were re-anesthetized with sodium pentobarbital at 24-hr. The thoracotomy was reopened and the heart was removed and perfused with ice-cold Tyrode's buffer via the left main coronary artery. The outer 0.5-1.5 mm EBZ tissue overlying the infarct was shaved and a longitudinal sample of tissue from the LAD region was stained with triphenyltetrazolium chloride (0.1%) to determine viability of the EBZ. Triphenyltetrazolium (TTZ) forms a brick-red precipitate in the presence of active intracellular dehydrogenases, delineating vital tissue. Non-viable tissues are not stained and remain a pale color. […] Tissue samples from the RS, the EBZ and the infarct tissue were dissected rapidly on an ice-cold surface, placed in freezer vials, and frozen in liquid nitrogen. These samples were then stored at −70° C. for later assay.
EKG Analysis: Full disclosure EKG records were obtained at 10 mm/sec for the entire 2-24 hour post-occlusion period. All measurements and calculations were made by direct visual observation and manual counting.
Anti-TNFα Treatment: A dosage of 2 mg/kg hTNFR:Fc (supplied as etanercept, Amgen, Inc, Thousand Oaks, Calif.) or saline were injected IV into a forepaw vein at 24-hr and again 1-hr prior to LAD ligation. […] This dosage was used after consultation with the pharmaceutical corporate pharmacology section and based on unpublished internal data that this dosage would provide maximal sequestration of tissue and circulating TNFα.

[2] = test system: β-adrenergic receptor kinase (βARK); experiment: βARK immunoblot of EBZ tissue 24 hr after LAD ligation (Model 1); format: in vivo, dog; details: bortezomib pretreated dog versus saline control, 24-hour infarct
Procedure: βARK immunoblots were used to estimate βARK expression (Yu et al., 2000).
Western Blot Analysis: Assessment of βARK content was conducted using standard SDS-PAGE and immunoblot techniques. Samples containing 100 μg of protein from myocardial extracts were electrophoresed using 10% SDS-PAGE and transferred to nitrocellulose membranes. The membrane was incubated with monoclonal anti-βARK (Upstate Biotechnology, Inc, Lake Placid, N.Y.), followed by exposure to peroxidase-linked anti-mouse IgG. Antibody binding was detected by a chemiluminescent method (ECL, Amersham Biosciences Corp, Piscataway, N.J.). Quantification of immunoreactive proteins was performed by densitometric scanning and with Image QuaNT software (Molecular Dynamics).
β-ARK, Proteasome and Ubiquitin Expression Assays: β-ARK, ubiquitinated β-ARK and proteasome in EBZ and RS tissues was determined by Western blot analysis. Samples were adjusted after protein concentration was assayed (BCA, Pierce Chemicals) to provide identical loads. 100 μg protein was combined with equal volume of SDS sample buffer, and electrophoresed on a 10% polyacrylamide gel. The blocked membranes were incubated with mouse anti β-ARK monoclonal antibody (Santa Cruz Biotechnology, Santa Cruz, Calif.) for 1-h at room temperature followed by anti-mouse IgG coupled to horseradish peroxidase and developed using an ECL western blotting kit (Amersham). The bands were scanned, stripped and reprobed with mouse anti-ubiquitin antibody (Santa Cruz Biotechnology, Santa Cruz, Calif.). The membrane was rescanned, stripped a second time and reprobed with rabbit anti-proteasome 20S C2 subunit polyclonal antibody (A.G. Scientific, Inc. CA). A separate control gel was included that was similarly treated, but reprobed with the identical Ab and band quality and density compared to the previous data obtained before stripping. Quantitation of immunoreactive bands was performed by densitometric scanning using ImageQuant software (Molecular Dynamics).

proteasome [3] = experiment: Proteasome chymotrypsin-like peptidase activity in packed whole blood cells after injection; format: in vivo, dog; details: 0.175 mg/kg, 1 hr before and 8 hr after LAD ligation; 1-24 hr after first injection; n=4
Procedure: (§1) Whole blood was measured at each time interval (FIGS. 29A and 29B), and ischemic myocardial tissue proteasome activity was measured at the final time interval (FIG. 30).
(§2) Proteasome activity: Activity was determined by proteasome chymotrypsin-like peptidase activity assay. Both cardiac (all groups) and whole blood cell (groups 4 and 5) proteasome activity was assayed. 30 mg frozen cardiac tissue was powdered in liquid nitrogen and sonicated in 0.5 ml buffer. Samples were then centrifuged for 30 min at 10,000 g at 4° C. and the supernatant was used for the assay. For preparing whole blood cell, heparinized blood was washed one time with saline and twice with cold PBS. The cells were lysed with EDTA (5 mM, pH 8.0) for 1 hr and centrifuged at 6600 g for 10 min at 4° C. and the supernatant was used for the assay. 0.4 mM Suc-Ala-Ala-Phe-MAC (Bachem California) was used as substrate. […] The time course for fluorescence was measured using a VICTOR3 Multilabel Counter (Perkin Elmer, Inc) at time 0 and every 5 min for 1 h to estimate the MAC liberated (excitation 380 nm, emission 460 nm). Slopes and intercepts were calculated using Microsoft Excel. Final results were expressed as fluorescence units/μg protein/min.

proteasome [4] = experiment: Proteasome chymotrypsin-like peptidase activity in myocardial tissue (RS, EBZ, INF) after injection; format: in vivo, dog; details: 0.175 mg/kg, INF tissue 23-hr after LAD ligation, n=4, control tissues averaged 45 FU/100 μg protein/min
Procedure: as §1, §2

[5] = test system: ventricular tachyarrhythmias following LAD coronary artery ligation; details: nadolol-treated dogs (Patterson et al., 1986), cited from earlier work
[6] = biological target: β-adrenergic receptors in epicardium; experiment: Action potential shortening with isoproterenol in epicardium; set-up: species or system dog
Description: This information is consistent with increased β-ARK-1 activity and decreased β-adrenergic receptor sensitivity in ventricular myocardium with chronic catecholamine administration or the converse, a decrease in β-ARK-1 with prolonged β-adrenergic receptor blockade (Pye et al., 2003).

[7] = biological target: β-adrenergic receptor / adenylate cyclase; details: read-out: mean EC50, isoproterenol-AC activity, SEM, n=4
Procedure: FIG. 10 illustrates an isoproterenol-AC activity dose-response curve in EBZ and RS tissue obtained 24 hours after LAD ligation. Data are shown for 1 of 4 experiments. Each point is mean of duplicate samples.

CC(C)C[C@H](NC(=O)[C@H](Cc1ccccc1)NC(=O)c1cnccn1)B(O)O [bortezomib]
fastest ventricular triplet rate observed per hour after LAD ligation (FIG. 18, FIG. 32) [1]: marked decrease | mortality (dogs died of group) [1]: 0 of 6 | very rapid (≧360 bpm) ventricular triplets versus control (FIG. 31B) ([1]; etanercept 2 mg/kg, bortezomib 0.0875 mg/kg): significant descrease; also recorded: no triplets in this range | protection against loss of βARK (GRK2) protein in EBZ, Western immunoblot (FIG. 34) [2]: marked protection against loss of βARK protein; also recorded: significant protection against loss of GRK2 expression | packed whole blood proteasome activity after injection (proteasome [3]): significant decrease in proteasome activity | myocardial tissue proteasome activity 24-hr after first injection (proteasome [4]): decreased from control tissues

CC(C)(C)NCC(O)COc1cccc2c1CC(O)C(O)C2 (centres unmarked) [nadolol]
incidence of sudden death, 2-24 hr after coronary artery ligation ([5]; FIG. 6): reduce the incidence of sudden death | rate and number of rapid ventricular triplets, 2-24 hr after coronary artery ligation ([5]; FIGS. 7 and 8): reduce both the rate and number of rapid ventricular triplets | incidence of pacing-induced sustained monomorphic reentrant tachycardia in surviving animals at 24 hours [5]: without reducing the incidence | infarct mass [5]: without altering infarct mass

anakinra: interleukin-1 antagonist (IL-1 inhibitor)
fastest ventricular triplet rate observed per hour after LAD ligation (FIG. 18, FIG. 32) [1]: no significant difference between etancercept and anakinra | mortality (dogs died of group) [1]: 1 of 7 | rapid (>300 bpm) ventricular triplets per hour versus control (FIG. 31A) ([1]; etanercept 2 mg/kg, bortezomib 0.0875 mg/kg, anakinra 10 mg/kg): relatively low until 8 hours after LAD and then rose rapidly

CC(C)NCC(O)c1ccc(O)c(O)c1 (centres unmarked) [isoproterenol]
EC50 ([6]; control normal tissue): 0.00047 µM | EC50 ([6]; remote site normal tissue, 24 hours post LAD ligation): 0.0143 µM | EC50 ([7]; EBZ tissue 24 hours after LAD ligation): 0.018 ± 0.0089 µM | EC50 ([7]; RS tissue 24 hours after LAD ligation): 0.073 ± 0.022 µM

From patent US7348305B2, “Inhibitor of cardiac tachyarrhythmias” (Department of Veterans Affairs, Rehabilitation, priority 2003, dated 2008)
